Laboratory results reported in article PMC7574625 (ACS Catalysis, 2020).
Substitutions are numbered along the chain they refer to.

Columns and labels:
LmrR A92Q = target: T1, LmrR A92Q (Lactococcus cremoris, UniProt A2RI36, A92Q); assay: binding affinity
T1 sequence (A2RI36 1-116 A92Q): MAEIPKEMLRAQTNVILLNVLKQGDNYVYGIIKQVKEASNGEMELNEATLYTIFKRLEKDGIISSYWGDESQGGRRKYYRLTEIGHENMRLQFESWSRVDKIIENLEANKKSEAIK

LmrR_A92E = target: T2, LmrR_A92E (Lactococcus cremoris, UniProt A2RI36, A92E); assay: binding affinity
T2 sequence (A2RI36 1-116 A92E): T1 sequence (A2RI36 1-116 A92Q) with Q92E

[Cu+2].c1cnc2c(c1)ccc1cccnc12 [Cu(II)-phen] gave a Kd (LmrR A92Q) of 103 ± 41 nM and a Kd (LmrR_A92E) of 65 ± 19 nM.
